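Growth conditions: 96-well plates. Treatment: test compound, 48 hours, 5 concentrations. Analysis: linear interpolation between bracketing concentrations; unreached endpoints set to highest concentration. At the TGI there is no net growth.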
Tests used:
Assay in all cases: DTP human tumour cell line panel, 48 h
[1] = system: HT29 colon
[2] = system: SNB-75 CNS
[3] = system: T-47D breast
[4] = system: NCI/ADR-RES ovarian
[5] = system: OVCAR-8 ovarian
[6] = system: NCI-H226 lung
[7] = system: MCF7 breast
[8] = system: U251 CNS
[9] = system: TK-10 renal
[10] = system: SN12C renal
[11] = system: MDA-MB-231 breast
[12] = system: OVCAR-3 ovarian
[13] = system: CCRF-CEM leukemia
[14] = system: MDA-MB-435
[15] = system: K-562 leukemia
[16] = system: MOLT-4 leukemia
[17] = system: NCI-H460 lung
[18] = system: UO-31 renal
[19] = system: SK-MEL-5 melanoma
[20] = system: PC-3 prostate
[21] = system: SF-295 CNS
[22] = system: DU-145 prostate
[23] = system: HCT-15 colon
[24] = system: BT-549 breast
[25] = system: UACC-62 melanoma
[26] = system: CAKI-1 renal
[27] = system: NCI-H23 lung
[28] = system: A498 renal
[29] = system: SK-MEL-28 melanoma
[30] = system: RXF 393 renal
[31] = system: OVCAR-5 ovarian
[32] = system: SW-620 colon
[33] = system: EKVX NSCLC
[34] = system: HOP-92 NSCLC
[35] = system: M14 melanoma
[36] = system: COLO 205 colon
[37] = system: HCC-2998 colon
[38] = system: SF-268 CNS
[39] = system: SK-MEL-2 melanoma
[40] = system: UACC-257 melanoma
[41] = system: HOP-62 NSCLC
[42] = system: HCT-116 colon
[43] = system: IGROV1 ovarian
[44] = system: SK-OV-3 ovarian
[45] = system: HS 578T breast
[46] = system: LOX IMVI melanoma
[47] = system: A549 NSCLC
[48] = system: ACHN renal
[49] = system: SNB-19 CNS
[50] = system: HL-60(TB) leukemia
[51] = system: RPMI-8226 leukemia
[52] = system: MDA-N
[53] = system: MALME-3M melanoma
[54] = system: KM12 colon
[55] = system: OVCAR-4 ovarian
[56] = system: NCI-H522 lung
[57] = system: 786-0 renal
[58] = system: SF-539 CNS

CCCCN(c1ccccc1)c1ncnc2c1cnn2C
TGI [1]: > 100 µM | TGI [2]: 55.9 µM | TGI [3]: 99.1 µM | TGI [4]: 72.7 µM | TGI [5]: > 100 µM | TGI [6]: > 100 µM | TGI [7]: > 100 µM | TGI [8]: > 100 µM | TGI [9]: > 100 µM | TGI [10]: > 100 µM | TGI [11]: > 100 µM | TGI [12]: > 100 µM | TGI [13]: 49.6 µM | TGI [14]: > 100 µM | TGI [15]: > 100 µM | TGI [16]: 40.8 µM | TGI [17]: > 100 µM | TGI [18]: > 100 µM | TGI [19]: > 100 µM | TGI [20]: > 100 µM | TGI [21]: > 100 µM | TGI [22]: > 100 µM | TGI [23]: > 100 µM | TGI [24]: 62.1 µM | TGI [25]: > 100 µM | TGI [26]: > 100 µM | TGI [27]: > 100 µM | TGI [28]: 71.1 µM | TGI [29]: > 100 µM | TGI [30]: 89.4 µM | TGI [31]: > 100 µM | TGI [32]: > 100 µM | TGI [33]: > 100 µM | TGI [34]: > 100 µM | TGI [35]: > 100 µM | TGI [36]: > 100 µM | TGI [37]: > 100 µM | TGI [38]: > 100 µM | TGI [39]: 78.1 µM | TGI [40]: 95.8 µM | TGI [41]: > 100 µM | TGI [42]: > 100 µM | TGI [43]: > 100 µM | TGI [44]: > 100 µM | TGI [45]: 76.4 µM | TGI [46]: > 100 µM | TGI [47]: > 100 µM | TGI [48]: > 100 µM | TGI [49]: > 100 µM | TGI [50]: 47.6 µM | TGI [51]: 48 µM | TGI [52]: > 100 µM | TGI [53]: 77.7 µM | TGI [54]: > 100 µM | TGI [55]: > 100 µM | TGI [56]: 53.6 µM | TGI [57]: > 100 µM

C/C=C/[C@H]1O[C@@](OC)([C@@H](C)[C@H](O)[C@H](C)[C@H]2OC(=O)/C(OC)=C/C(C)=C/[C@@H](C)[C@@H](O)[C@@H](C)[C@@H](O)[C@H](C)C/C(C)=C/C=C/[C@@H]2OC)CC(OC2CC(O)C(OC(N)=O)C(C)O2)[C@@H]1C (stereo partly specified)
TGI [1]: 1.17 µM | TGI [2]: 19.5 µM | TGI [3]: 15.1 µM | TGI [4]: 19.4 µM | TGI [5]: 17.3 µM | TGI [6]: 14.1 µM | TGI [7]: 16 µM | TGI [8]: 9.71 µM | TGI [9]: 23.3 µM | TGI [10]: 9.3 µM | TGI [11]: 12.7 µM | TGI [12]: 10.1 µM | TGI [14]: < 0.01 µM | TGI [16]: < 0.01 µM | TGI [17]: 4.17 µM | TGI [18]: < 0.01 µM | TGI [19]: < 0.0433 µM | TGI [20]: 6.09 µM | TGI [21]: < 0.01 µM | TGI [22]: 18.8 µM | TGI [23]: 5.26 µM | TGI [24]: 17.6 µM | TGI [26]: 11.7 µM | TGI [27]: 21.7 µM | TGI [28]: 21 µM | TGI [58]: < 0.01 µM | TGI [29]: 14.2 µM | TGI [30]: 15.7 µM | TGI [31]: 17 µM | TGI [32]: 4.8 µM | TGI [33]: 12.8 µM | TGI [34]: 11 µM | TGI [35]: < 0.0124 µM | TGI [36]: 1.8 µM | TGI [37]: 13.3 µM | TGI [38]: 22.3 µM | TGI [39]: 1.15 µM | TGI [40]: < 0.0143 µM | TGI [41]: 1.4 µM | TGI [42]: 0.197 µM | TGI [43]: 15.1 µM | TGI [44]: 20.7 µM | TGI [45]: 17.9 µM | TGI [46]: < 0.01 µM | TGI [47]: 14.8 µM | TGI [48]: 8.27 µM | TGI [49]: 18.1 µM | TGI [51]: < 0.0378 µM | TGI [52]: 0.0486 µM | TGI [53]: 0.305 µM | TGI [54]: 12.7 µM | TGI [55]: 18.3 µM | TGI [56]: 1.42 µM | TGI [57]: 10.4 µM

Source: PubChem BioAssay (NCI)
